Results: the supplement of paper PMC11061612

Assays:
Capivasertib = compound: C1CN(CCC1(C(=O)N[C@@H](CCO)C2=CC=C(C=C2)Cl)N)C3=NC=NC4=C3C=CN4 [Capivasertib]; details: max 10 µM
Procedure, shortened: (§1)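 Cancer cell lines were dosed for 72 hours (final DMSO typically 0.2%) after 24 hours at 37°C and 5% CO2 in 1536-well plates containing 7.5 μl DMEM/F12 or RPMI with 10% FBS. Viability came from CellTiter-Glo 2.0 luminescence, scaled between blank-well and DMSO-well means, and dose responses were fitted to a two-parameter logistic curve with a non-linear mixed effects model. The single-agent IC50 was obtained from this fit.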

AZD1775 = compound: C=CCn1c(=O)c2cnc(Nc3ccc(N4CCN(C)CC4)cc3)nc2n1-c1cccc(C(C)(C)O)n1 [AZD1775]; details: max 3 µM
Procedure, shortened: as §1

Trametinib = compound: CC(=O)Nc1cccc(-n2c(=O)n(C3CC3)c(=O)c3c(Nc4ccc(I)cc4F)n(C)c(=O)c(C)c32)c1 [Trametinib]; details: max 1 µM
Procedure, shortened: as §1

Palbociclib = compound: CC(=O)c1c(C)c2cnc(Nc3ccc(N4CCNCC4)cn3)nc2n(C2CCCC2)c1=O [Palbociclib]; details: max 10 µM
Procedure, shortened: as §1

AZD1390 = compound: CC(C)n1c(=O)n(C)c2cnc3cc(F)c(-c4ccc(OCCCN5CCCCC5)nc4)cc3c21 [AZD1390]; details: max 0.3 µM
Procedure, shortened: as §1

Venetoclax = compound: CC1(C)CCC(CN2CCN(c3ccc(C(=O)NS(=O)(=O)c4ccc(NCC5CCOCC5)c([N+](=O)[O-])c4)c(Oc4cnc5[nH]ccc5c4)c3)CC2)=C(c2ccc(Cl)cc2)C1 [Venetoclax]; details: max 1 µM
Procedure, shortened: as §1

Dasatinib = compound: CC1=C(C(=CC=C1)Cl)NC(=O)C2=CN=C(S2)NC3=CC(=NC(=N3)C)N4CCN(CC4)CCO [Dasatinib]; details: max 2 µM
Procedure, shortened: as §1

SG3199 = compound: CC1=CN2[C@@H](C1)C=NC3=CC(=C(C=C3C2=O)OC)OCCCCCOC4=C(C=C5C(=C4)N=C[C@@H]6CC(=CN6C5=O)C)OC [SG3199]; details: max 0.001 µM
Procedure, shortened: as §1

AZD2811 = compound: CCN(CCO)CCCOc1ccc2c(Nc3cc(CC(=O)Nc4cccc(F)c4)[nH]n3)ncnc2c1 [AZD2811]; details: max 1 µM
Procedure, shortened: as §1

SN-38 = compound: CCc1c2c(nc3ccc(O)cc13)-c1cc3c(c(=O)n1C2)COC(=O)[C@]3(O)CC [SN-38]; details: max 0.3 µM
Procedure, shortened: as §1

AZD0156 = compound: CN(C)CCCOc1ccc(-c2ccc3ncc4c(c3c2)n(C2CCOCC2)c(=O)n4C)cn1 [AZD0156]; details: max 3 µM
Procedure, shortened: as §1

AZD4320 = compound: CN(CC[C@H](CSC1=CC=CC=C1)NC2=C(C=C(C=C2)S(=O)(=O)NC(=O)C3=CC=C(C=C3)N4CCC(CC4)[C@H](C5=CC=CC=C5C6=CC=C(C=C6)Cl)O)S(=O)(=O)C(F)(F)F)CCO [AZD4320]; details: max 1 µM
Procedure, shortened: as §1

Alisertib = compound: COc1cc(Nc2ncc3c(n2)-c2ccc(Cl)cc2C(c2c(F)cccc2OC)=NC3)ccc1C(=O)O [Alisertib]; details: max 10 µM
Procedure, shortened: as §1

Gefitinib = compound: COc1cc2ncnc(Nc3ccc(F)c(Cl)c3)c2cc1OCCCN1CCOCC1 [Gefitinib]; details: max 10 µM
Procedure, shortened: as §1

Prexasertib = compound: COc1cccc(OCCCN)c1-c1cc(Nc2cnc(C#N)cn2)n[nH]1 [Prexasertib]; details: max 1 µM
Procedure, shortened: as §1

Doxorubicin = compound: COc1cccc2c1C(=O)c1c(O)c3c(c(O)c1C2=O)C[C@@](O)(C(=O)CO)C[C@@H]3O[C@H]1C[C@H](N)[C@H](O)[C@H](C)O1 [Doxorubicin]; details: max 1 µM
Procedure, shortened: as §1

AZD5153 = compound: COc1nnc2ccc(N3CCC(c4ccc(OCCN5CCN(C)C(=O)[C@H]5C)cc4)CC3)nn12 [AZD5153]; details: max 1 µM
Procedure, shortened: as §1

Lapatinib = compound: CS(=O)(=O)CCNCc1ccc(-c2ccc3ncnc(Nc4ccc(OCc5cccc(F)c5)c(Cl)c4)c3c2)o1 [Lapatinib]; details: max 10 µM
Procedure, shortened: as §1

AZD8186 = compound: C[C@@H](Nc1cc(F)cc(F)c1)c1cc(C(=O)N(C)C)cc2c(=O)cc(N3CCOCC3)oc12 [AZD8186]; details: max 3 µM
Procedure, shortened: as §1

Crizotinib = compound: C[C@@H](Oc1cc(-c2cnn(C3CCNCC3)c2)cnc1N)c1c(Cl)ccc(F)c1Cl [Crizotinib]; details: max 10 µM
Procedure, shortened: as §1

Savolitinib = compound: C[C@@H](c1ccc2nccn2c1)n1nnc2ncc(-c3cnn(C)c3)nc21 [Savolitinib]; details: max 1 µM
Procedure, shortened: as §1

AZD6738 = compound: C[C@@H]1COCCN1C2=NC(=NC(=C2)C3(CC3)[S@](=N)(=O)C)C4=C5C=CNC5=NC=C4 [AZD6738]; details: max 10 µM
Procedure, shortened: as §1

AZD5991 = compound: Cc1c2c(nn1C)CSCc1cc(n(C)n1)CSc1cc(c3ccccc3c1)OCCCc1c(C(=O)O)n(C)c3c-2c(Cl)ccc13 [AZD5991]; details: max 1 µM
Procedure, shortened: as §1

AZD7648 = compound: Cc1cc2ncnn2cc1Nc1ncc2c(n1)n(C1CCOCC1)c(=O)n2C [AZD7648]; details: max 10 µM
Procedure, shortened: as §1

Taselisib = compound: Cc1nc(-c2cn3c(n2)-c2ccc(-c4cnn(C(C)(C)C(N)=O)c4)cc2OCC3)n(C(C)C)n1 [Taselisib]; details: max 10 µM
Procedure, shortened: as §1

Selumetinib = compound: Cn1cnc2c(F)c(Nc3ccc(Br)cc3Cl)c(C(=O)NOCCO)cc21 [Selumetinib]; details: max 10 µM
Procedure, shortened: as §1

MK-2206 = compound: NC1(c2ccc(-c3nc4ccn5c(=O)[nH]nc5c4cc3-c3ccccc3)cc2)CCC1 [MK-2206]; details: max 10 µM
Procedure, shortened: as §1

Olaparib = compound: O=C(c1cc(Cc2n[nH]c(=O)c3ccccc23)ccc1F)N1CCN(C(=O)C2CC2)CC1 [Olaparib]; details: max 10 µM
Procedure, shortened: as §1

Cell Line | IC50, cell viability 72 h (Capivasertib) | IC50, cell viability 72 h (AZD1775) | IC50, cell viability 72 h (Trametinib) | IC50, cell viability 72 h (Palbociclib) | IC50, cell viability 72 h (AZD1390) | IC50, cell viability 72 h (Venetoclax) | IC50, cell viability 72 h (Dasatinib) | IC50, cell viability 72 h (SG3199) | IC50, cell viability 72 h (AZD2811) | IC50, cell viability 72 h (SN-38) | IC50, cell viability 72 h (AZD0156) | IC50, cell viability 72 h (AZD4320) | IC50, cell viability 72 h (Alisertib) | IC50, cell viability 72 h (Gefitinib) | IC50, cell viability 72 h (Prexasertib) | IC50, cell viability 72 h (Doxorubicin) | IC50, cell viability 72 h (AZD5153) | IC50, cell viability 72 h (Lapatinib) | IC50, cell viability 72 h (AZD8186) | IC50, cell viability 72 h (Crizotinib) | IC50, cell viability 72 h (Savolitinib) | IC50, cell viability 72 h (AZD6738) | IC50, cell viability 72 h (AZD5991) | IC50, cell viability 72 h (AZD7648) | IC50, cell viability 72 h (Taselisib) | IC50, cell viability 72 h (Selumetinib) | IC50, cell viability 72 h (MK-2206) | IC50, cell viability 72 h (Olaparib)
NCI-H513 (Other Solid Carcinomas) | > 10000 nM | > 3000 nM | 643 nM | > 10000 nM | > 300 nM | > 1000 nM | > 2000 nM | > 1 nM | > 1000 nM | 210 nM | > 3000 nM | > 1000 nM | > 10000 nM | > 10000 nM | > 1000 nM | > 1000 nM | > 1000 nM | > 10000 nM | > 3000 nM | > 10000 nM | > 1000 nM | > 10000 nM | > 1000 nM | > 10000 nM | > 10000 nM | > 10000 nM | > 10000 nM | > 10000 nM
NCI-H1573 (Lung Adenocarcinoma) | > 10000 nM | > 3000 nM | 429 nM | > 10000 nM | > 300 nM | > 1000 nM | > 2000 nM | > 1 nM | > 1000 nM | > 300 nM | > 3000 nM | > 1000 nM | > 10000 nM | > 10000 nM | 296 nM | > 1000 nM | > 1000 nM | > 10000 nM | > 3000 nM | > 10000 nM | > 1000 nM | > 10000 nM | > 1000 nM | > 10000 nM | > 10000 nM | > 10000 nM | > 10000 nM | > 10000 nM
NCI-H2347 (Lung Adenocarcinoma) | > 10000 nM | > 3000 nM | > 1000 nM | > 10000 nM | > 300 nM | > 1000 nM | > 2000 nM | > 1 nM | > 1000 nM | > 300 nM | > 3000 nM | > 1000 nM | > 10000 nM | > 10000 nM | > 1000 nM | > 1000 nM | > 1000 nM | > 10000 nM | > 3000 nM | > 10000 nM | > 1000 nM | > 10000 nM | > 1000 nM | > 10000 nM | > 10000 nM | > 10000 nM | > 10000 nM | > 10000 nM
NCI-H2405 (Lung Adenocarcinoma) | > 10000 nM | > 3000 nM | 430 nM | > 10000 nM | > 300 nM | > 1000 nM | > 2000 nM | > 1 nM | > 1000 nM | > 300 nM | > 3000 nM | > 1000 nM | > 10000 nM | > 10000 nM | > 1000 nM | > 1000 nM | > 1000 nM | > 10000 nM | > 3000 nM | > 10000 nM | > 1000 nM | > 10000 nM | > 1000 nM | > 10000 nM | > 10000 nM | > 10000 nM | > 10000 nM | > 10000 nM
OVISE (Ovarian Carcinoma) | > 10000 nM | 952 nM | > 1000 nM | > 10000 nM | > 300 nM | > 1000 nM | 415 nM | > 1 nM | > 1000 nM | > 300 nM | > 3000 nM | 463 nM | 8950 nM | > 10000 nM | 100 nM | > 1000 nM | 681 nM | > 10000 nM | > 3000 nM | > 10000 nM | > 1000 nM | 5980 nM | > 1000 nM | > 10000 nM | 449 nM | > 10000 nM | > 10000 nM | > 10000 nM
PF-382 (T-Lymphoblastic Leukemia) | 2250 nM | 331 nM | > 1000 nM | 2080 nM | > 300 nM | > 1000 nM | 207 nM | > 1 nM | 34.4 nM | 3.65 nM | > 3000 nM | 175 nM | 391 nM | > 10000 nM | 17.2 nM | 85.8 nM | 79 nM | > 10000 nM | > 3000 nM | 4070 nM | > 1000 nM | 3220 nM | > 1000 nM | > 10000 nM | 2780 nM | > 10000 nM | 1500 nM | > 10000 nM
